PubChem BioAssay AID623998 (Broad Institute, 2012)
Several values for one entry are separate records, joined by “and”; a condition that tells them apart may be missing. Equal entries are not always repeated. Results filed as inconclusive are left out. Activity calls are given as the source filed them.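 The calls were made as follows: active = compound whose fitted half-maximal dose is at most twice its top tested dose in every repeat; inconclusive = mixed calls across repeats, weak flat response, or unreliable curve fit; inactive = all repeats flat, too weak, or wrong direction.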

Molecular target: Glycogen synthase kinase-3 beta (Homo sapiens) (UniProt P49841)
Sequence (P49841 whole entry, looked up): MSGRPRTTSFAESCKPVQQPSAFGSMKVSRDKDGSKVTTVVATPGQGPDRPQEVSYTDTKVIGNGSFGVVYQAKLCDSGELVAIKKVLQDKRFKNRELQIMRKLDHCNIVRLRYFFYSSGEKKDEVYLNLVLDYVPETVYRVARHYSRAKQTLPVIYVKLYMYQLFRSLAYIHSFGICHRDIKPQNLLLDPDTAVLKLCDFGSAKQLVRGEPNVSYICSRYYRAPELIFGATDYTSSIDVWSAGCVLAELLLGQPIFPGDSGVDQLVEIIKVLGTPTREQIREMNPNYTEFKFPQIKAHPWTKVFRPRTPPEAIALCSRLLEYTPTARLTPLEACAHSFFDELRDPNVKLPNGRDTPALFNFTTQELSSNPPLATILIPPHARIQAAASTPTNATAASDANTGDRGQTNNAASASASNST
Assay: GSK3beta kinase inhibitors, SAR follow-up, biochemical, ADP-Glo luminescence, dry powder samples (AID 623998)
Conditions: GSK3beta ADP-Glo luminescence kinase assay, 60 min

| Structure (SMILES) | AC50 |
| --- | --- |
| Cc1ccccc1C1C2=C(CC(C)(C)CC2=O)Nc2n[nH]c(C)c21 (configuration not stated) | 455 nM |
| Cc1[nH]nc2c1C(C)C1=C(CC(C)(C)CC1=O)N2 (configuration not stated) | 534 nM |
| CC1(C)CC(=O)C2=C(C1)Nc1n[nH]c(C(F)(F)F)c1C2c1ccccc1 (configuration not stated) | 35.7 nM |
| Cc1[nH]nc2c1[C@@H](c1cccs1)C1=C(CC(C)(C)CC1=O)N2 | 1910 nM |
| COc1cccc(C2C3=C(CC(C)(C)CC3=O)Nc3n[nH]c(C)c32)c1 (configuration not stated) | 1160 nM |
| Cc1[nH]nc2c1[C@@H](c1ccccc1C(F)(F)F)C1=C(CC(C)(C)CC1=O)N2 | 37 nM |
| CC1(C)CC(=O)C2=C(C1)Nc1n[nH]c(C(F)(F)F)c1C2c1cc(F)ccc1C(F)(F)F (configuration not stated) | 51.3 nM |
| Cc1[nH]nc2nc3c(c(-c4cccs4)c12)C(=O)CC(C)(C)C3 | 28100 nM |
| CC(C)COc1ccc(-c2nn(-c3ccccc3)cc2/C=N/O)cc1 | 3080 nM |
| O/N=C/c1cn(-c2ccccc2)nc1-c1ccc2c(c1)OCCO2 | 577 nM |
| Cc1[nH]nc2c1C(c1ccccc1Br)C1=C(CC(C)(C)CC1=O)N2 (configuration not stated) | 180 nM |
| COc1ccccc1C1C2=C(CC3(CCCCC3)CC2=O)Nc2n[nH]c(C)c21 (configuration not stated) | 278 nM |
| Cc1[nH]nc2c1C(C)(c1ccccc1)C1=C(CC(C)(C)CC1=O)N2 (configuration not stated) | 308 nM |
| COc1ccccc1C1C2=C(CC(C)(C)CC2=O)Nc2n[nH]c(-c3ccccc3)c21 (configuration not stated) | 1550 nM |
| COc1ccccc1C1C(C(C)=O)=C(C)Nc2n[nH]c(C)c21 (configuration not stated) | 3000 nM |
| CC1(C)CC(=O)/C(=C\c2ccccc2C(F)(F)F)C(=Nc2cc(C(F)(F)F)[nH]n2)C1 | 3110 nM |
| CC1(C)CC(=O)C2=C(C1)Nc1n[nH]c(C(F)(F)F)c1C2c1cc(F)ccc1F (configuration not stated) | 451 nM |
| Cc1[nH]nc2c1C(c1cccc(C(F)(F)F)c1)C1=C(CC(C)(C)CC1=O)N2 (configuration not stated) | 199 nM |
| Cc1[nH]nc2c1C(c1ccsc1)C1=C(CC(C)(C)CC1=O)N2 (configuration not stated) | 1370 nM |
| Cc1[nH]nc2c1C(c1ccccc1C#N)C1=C(CC(C)(C)CC1=O)N2 (configuration not stated) | 134 nM |
| Cc1[nH]nc2c1C(c1ccc(Cl)s1)C1=C(CC(C)(C)CC1=O)N2 (configuration not stated) | 1140 nM |
| Cc1[nH]nc2c1C(c1ccccc1Cl)C1=C(CC(C)(C)CC1=O)N2 (configuration not stated) | 300 nM |
| Cc1ccc(-c2nn(-c3ccccc3)cc2/C=N/O)cc1 | 313 nM |

| Structure (SMILES) | AC50 |
| --- | --- |
| COc1cccc(-c2nn(-c3ccccc3)cc2/C=N/O)c1 | 1760 nM |
| Cc1[nH]nc2c1[C@H](c1ccccc1C(F)(F)F)C1=C(CC(C)(C)CC1=O)N2 | 5570 nM |
| CSc1ccccc1C1C2=C(CC(C)(C)CC2=O)Nc2n[nH]c(C)c21 (configuration not stated) | 32.4 nM |
| O/N=C/c1cn(-c2ccccc2)nc1-c1ccccc1 | 2930 nM |
| O=S(=O)(Nc1ccccn1)c1ccc(N=Cc2c(O)[nH]c3ccc4ncsc4c23)cc1 | 807 nM |
| Cc1[nH]nc2c1C(c1ccc(C#N)cc1)C1=C(CC(C)(C)CC1=O)N2 (configuration not stated) | 10400 nM |
| COc1ccc(-c2nn(-c3ccccc3)cc2/C=N/O)cc1OC | 617 nM |
| Cc1[nH]nc2c1C(c1ccc(Br)cn1)C1=C(CC(C)(C)CC1=O)N2 (configuration not stated) | 4990 nM |
| Cc1[nH]nc2c1C(c1cccc3nonc13)C1=C(CC(C)(C)CC1=O)N2 (configuration not stated) | 50 nM |
| CC1(C)CC(=O)/C(=C\c2cccc(F)c2C(F)(F)F)C(=Nc2cc(C(F)(F)F)[nH]n2)C1 | 2630 nM |
| COc1ccccc1C1C2=C(CC(C)(C)CC2=O)Nc2n[nH]c(C(C)C)c21 (configuration not stated) | 415 nM |
| CC1(C)CC(=O)C2=C(C1)Nc1n[nH]c(C(F)(F)F)c1C2c1ccccc1F (configuration not stated) | 184 nM |
| Cc1[nH]nc2c1C(c1cccc(C#N)c1)C1=C(CC(C)(C)CC1=O)N2 (configuration not stated) | 52.3 nM |
| COc1ccccc1C1C2=C(CC(C)(C)CC2=O)Nc2[nH]ncc21 (configuration not stated) | 122 nM |
| COc1ccccc1C1C2=C(CCCC2=O)Nc2n[nH]c(C)c21 (configuration not stated) | 3420 nM |
| Cc1[nH]nc2c1C(c1ccc3c(c1)OCO3)C1=C(CC(C)(C)CC1=O)N2 (configuration not stated) | 4610 nM |
| COc1ccccc1C1C2=C(CC(C)(C)CC2=O)Nc2n[nH]c(C)c21 (configuration not stated) | 124 nM |
| Cc1[nH]nc2c1C(c1cccc(Cl)c1)C1=C(CC(C)(C)CC1=O)N2 (configuration not stated) | 919 nM |
| Cc1[nH]nc2c1C(C1CC1)C1=C(CC(C)(C)CC1=O)N2 (configuration not stated) | 3050 nM |
| COc1ccccc1/C=C1\C(=O)CC(C)(C)CC1=Nc1cc(C(F)(F)F)[nH]n1 | 7500 nM |
| Cc1[nH]nc2c1C(c1ccc(Cl)cc1)C1=C(CC(C)(C)CC1=O)N2 (configuration not stated) | 4440 nM |
| O/N=C/c1cn(-c2ccccc2)nc1-c1ccc(Cl)cc1 | 45.2 nM |
| CC(C)c1ccc(-c2nn(-c3ccccc3)cc2/C=N/O)cc1 | 737 nM |

| Structure (SMILES) | AC50 |
| --- | --- |
| Cc1cccc(C2C3=C(CC(C)(C)CC3=O)Nc3n[nH]c(C)c32)c1 (configuration not stated) | 614 nM |
| CCc1[nH]nc2c1C(c1ccccc1OC)C1=C(CC(C)(C)CC1=O)N2 (configuration not stated) | 83.3 nM |
| COc1ccccc1[C@H]1C2=C(CC(C)(C)CC2=O)Nc2n[nH]c(C(F)(F)F)c21 | 1590 nM |
| Cc1[nH]nc2c1C(c1ccn[nH]1)C1=C(CC(C)(C)CC1=O)N2 (configuration not stated) | 1880 nM |
| CC1(C)CC(=O)C2=C(C1)Nc1n[nH]c(C(F)(F)F)c1C2c1c(F)cccc1F (configuration not stated) | 87.5 nM |
| Cc1[nH]nc2c1C(c1cccs1)C1C(=O)CC(C)(C)CC1=N2 (configuration not stated) | 627 nM |
| Cc1[nH]nc2c1[C@H](c1cccs1)C1=C(CC(C)(C)CC1=O)N2 | 11600 nM |
| COc1ccccc1C1C2=C(CC(C)(C)CC2=O)Nc2n[nH]c(C(F)(F)F)c21 (configuration not stated) | 13.2 nM and 128 nM |
| Cc1[nH]nc2c1C(c1ccccc1C(F)(F)F)C1=C(CC(C)(C)CC1=O)N2 (configuration not stated) | 42.5 nM |
| COc1ccc(C2C3=C(CC(C)(C)CC3=O)Nc3n[nH]c(C)c32)cc1 (configuration not stated) | 14700 nM |
| Cc1[nH]nc2c1C(c1ccc(C(F)(F)F)cc1)C1=C(CC(C)(C)CC1=O)N2 (configuration not stated) | 9290 nM |
| Cc1[nH]nc2c1C(c1cccc(F)c1)C1=C(CC(C)(C)CC1=O)N2 (configuration not stated) | 540 nM |
| Cc1[nH]nc2c1C(c1ccc(F)cc1)C1=C(CC(C)(C)CC1=O)N2 (configuration not stated) | 2960 nM |
| O/N=C/c1cn(-c2ccccc2)nc1-c1ccc(F)cc1 | 440 nM |
| Cc1[nH]nc2c1C(c1ccc(F)cc1Cl)C1=C(CC(C)(C)CC1=O)N2 (configuration not stated) | 2290 nM |
| CC1(C)CC(=O)C2=C(C1)Nc1n[nH]c(C(F)(F)F)c1C2c1ccc(F)cc1C(F)(F)F (configuration not stated) | 173 nM |
| COc1ccccc1C1C2=C(CC(C)(C)CC2=O)Nc2n[nH]c(C(C)(C)C)c21 (configuration not stated) | 834 nM |
| Cc1[nH]nc2c1C(c1cccnc1)C1=C(CC(C)(C)CC1=O)N2 (configuration not stated) | 408 nM |
| Cc1[nH]nc2c1C(c1ccccn1)C1=C(CC(C)(C)CC1=O)N2 (configuration not stated) | 1020 nM |
| CC1(C)CC(=O)C2=C(C1)Nc1n[nH]c(C(F)(F)F)c1C2c1cc(F)ccc1OC(F)(F)F (configuration not stated) | 403 nM |
| COc1ccccc1[C@@H]1C2=C(CC(C)(C)CC2=O)Nc2n[nH]c(C(F)(F)F)c21 | 23.8 nM |
| COc1ccccc1C1C2=C(CCC(C)(C)C2=O)Nc2n[nH]c(C)c21 (configuration not stated) | 515 nM |
| Cc1ccc(C2C3=C(CC(C)(C)CC3=O)Nc3n[nH]c(C)c32)cc1 (configuration not stated) | 2160 nM |

Same assay, conditions: GSK3beta ADP-Glo luminescence kinase assay, 60 min; at 46 µM (top of the series)

| Structure (SMILES) | activity, negative = inhibition |
| --- | --- |
| CN(C)Cc1cn(-c2ccccc2)nc1-c1ccccc1 | inactive |
| COc1ccc(-c2nn(-c3ccccc3)cc2C(=O)O)cc1 | inactive |
| COc1ccccc1C1C2=C(CC(C)(C)CC2=O)Nc2ccccc21 (configuration not stated) | inactive |
